This is an account of results in publication PMC3874090, “Synthesis and Evaluation of Anti-acetylcholinesterase Activity of 2-(2-(4-(2-Oxo-2-phenylethyl)piperazin-1-yl) ethyl)Isoindoline-1,3-dione Derivatives with Potential Anti-Alzheimer Effects” (Iranian Journal of Basic Medical Sciences, 2013).

Molecules are shown by their SMILES. Where two headings read alike, the source gives them in different places.

For orientation: IC50 means the point on the concentration scale where inhibition reaches its midpoint.

The target of assay [1] is T1, acetylcholinesterase from electric eel (Electrophorus electricus, UniProt O42275).
T1 construct: purchased Sigma-Aldrich (Steinheim, Germany) Type V-S
T1 sequence (O42275 24-633): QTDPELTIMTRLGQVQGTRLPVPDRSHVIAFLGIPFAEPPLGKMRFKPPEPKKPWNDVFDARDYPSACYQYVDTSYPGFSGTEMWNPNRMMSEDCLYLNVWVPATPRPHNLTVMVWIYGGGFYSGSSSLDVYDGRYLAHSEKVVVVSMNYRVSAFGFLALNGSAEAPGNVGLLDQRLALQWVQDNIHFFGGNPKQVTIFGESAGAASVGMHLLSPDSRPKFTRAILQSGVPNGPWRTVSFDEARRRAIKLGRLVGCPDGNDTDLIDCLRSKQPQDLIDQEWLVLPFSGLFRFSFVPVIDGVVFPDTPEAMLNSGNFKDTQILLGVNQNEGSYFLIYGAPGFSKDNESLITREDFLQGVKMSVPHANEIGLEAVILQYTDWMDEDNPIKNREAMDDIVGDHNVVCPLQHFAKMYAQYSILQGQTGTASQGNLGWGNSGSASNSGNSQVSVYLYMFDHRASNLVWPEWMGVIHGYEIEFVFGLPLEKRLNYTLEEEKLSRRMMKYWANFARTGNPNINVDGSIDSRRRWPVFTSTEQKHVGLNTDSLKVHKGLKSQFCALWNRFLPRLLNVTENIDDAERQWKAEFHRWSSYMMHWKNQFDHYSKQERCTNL
In words: biochemical. The settings on record: Ellman test, electric eel AChE. As to the method: Lyophilized powder of acetylcholinesterase from electric eel source (AChE, E.C. 3.1.1.7, Type V-S, 1000 unit) was purchased from Sigma-Aldrich (Steinheim, Germany). 5,5'-Dithiobis-(2-nitrobenzoic acid, DTNB), potassium dihydrogen phosphate (KH2PO4), dipotassium hydrogen phosphate (K2HPO4), potassium hydroxide (KOH), sodium hydrogen carbonate (NaHCO3), and acetylthiocholine iodide were purchased from Fluka (Buchs, Switzerland).
According to the literature, the Ellman test was performed for assessment of the anticholinesterase activity of intended compounds in vitro. […] After rapid and immediate mixing the change of absorption was measured at 412 nm. The blank reading contained 3 ml buffer, 200 µl water, 100 µl DTNB and 20 µl substrate. The reaction rates were calculated, and the percent inhibition of test compounds was determined. Each concentration was analyzed in triplicate, and IC50 ± SD values were determined graphically from inhibition curves (log inhibitor concentration vs percent of inhibition) ([21], [22]).
Background: DTNB colorimetry detects thiols as they appear.

The target of assay [2] is acetylcholinesterase. Also on record: method as in Sugimoto and collegues [20]. The following applies: in Figure 2; ref Sugimoto and collegues [20]; read-out: IC50 of lead compound; cited from earlier work.
The mark [3] stands for this setting: preincubated 15 min at 25 °C, pH 8.0, triplicate, read-out: IC50 (μM ± SD), acetylcholinesterase inhibitory activity.

For the compound `O=C(CN1CCN(CCN2C(=O)c3ccccc3C2=O)CC1)c1cccc(Cl)c1` [Compound 4c, 2-(2-(4-(2-(3-Chlorophenyl)-2-oxoethyl)piperazin-1-yl)ethyl)isoindoline-1,3-dione], in assay [1] (setting [3]), the IC50 was found to be 28.2 ± 2.3 µM.
The same measure, in the same setting: the same measure for `O=C(CN1CCN(CCN2C(=O)c3ccccc3C2=O)CC1)c1ccccc1` [Compound 4a, 2-(2-(4-(2-Oxo-2-phenylethyl)piperazin-1-yl)ethyl)isoindoline-1,3-dione]: 45.6 ± 2.78 µM.
On to `O=C1c2ccccc2C(=O)N1CCC1CCN(Cc2ccccc2)CC1` [Compound A], for which the IC50 in assay [2] was 0.03 µM.
With `O=C(CN1CCN(CCN2C(=O)c3ccccc3C2=O)CC1)c1ccc(F)cc1` [Compound 4b, 2-(2-(4-(2-(4-Fluorophenyl)-2-oxoethyl)piperazin-1-yl)ethyl)isoindoline-1,3-dione], the IC50 in assay [1] (read-out: IC50, acetylcholinesterase inhibition) came to 16.4 ± 1.07 µM.
With `O=C(CN1CCN(CCN2C(=O)c3ccccc3C2=O)CC1)c1ccc2ccccc2c1` [Compound 4e, 2-(2-(4-(2-(Naphthalen-2-yl)-2-oxoethyl)piperazin-1-yl)ethyl)isoindoline-1,3-dione], the IC50 in assay [1] (setting [3]) amounted to 40.5 ± 2.47 µM.
Still for that read-out and setting: the same measure for `O=C(CN1CCN(CCN2C(=O)c3ccccc3C2=O)CC1)c1ccc(Cl)cc1Cl` [Compound 4d, 2-(2-(4-(2-(2,4-Dichlorophenyl)-2-oxoethyl)piperazin-1-yl)ethyl)isoindoline-1,3-dione]: 63 ± 4.06 µM.
